# Source: US12139505B2, “Compositions useful in therapy of autophagy-related pathologies, and methods of making and using the same” (The University of Toledo, priority 2017, dated 2024)
# Legend:
# [1] = test system: RG2 glioma cells; test: Autophagic flux assay (LC3-II western blot in the presence of bafilomycin-A1); assay type: cell-based, rat
# Protocol: In the assay, cells are treated with subtoxic concentrations of bafilomycin-A, which blocks lysosomal acidification. This prevents autophagosome fusion with lysosomes at a specific point. For example, RG2 glioma cells (or other cell types) are “clamped” by addition of 10-50 nM bafilomycin-A1 to block autophagosome fusion with lysosomes and eliminate autophagy clearance. Then, autophagy flux is measured by the conjugation of phosphatidylethanolamine to LC3-I, yielding an electrophoretically separable LC3-II by western blot. LC3-II acts as a link between nascent autophagosomes and cargo being directed into these structures. An autophagy enhancer will increase LC3-II in the presence of bafilomycin, whereas a compound that inhibits autophagy completion will not do so. Thus, the L3A-I to LC3A-II conversion in the presence of bafilomycin-A1 constitutes a valid measure of autophagy.
# For the assays, rat glioma cells RG2 (ATCC® CRL-2433™; RG2 cells) were cultured. […] The cells were then incubated for an additional 4 h. At termination, the cell culture medium was removed, cells were washed with PBS and lysed on ice in Pierce RIPA buffer containing protease and phosphatase inhibitors.
# Western Blotting: The proteins were electrophoresed and wet-blotted to polyvinylidine difluoride membranes, blocked overnight in 4% bovine serum albumin, and developed using antibodies obtained from Cell Signaling Technology (L3A: cat #. 4599; ULK1: cat #. 8054, ULK1(p757): cat #. 6880).
# RG2 glioma cells were treated without drug (first column in FIG. 8A) or 4 h with 50 nM bafilomycin-A1 (BAF), the indicated concentration of LK, or the phosphonate analog 2-isopropyl-LK-3-phosphonate. The western blot results are shown in FIG. 8A, where the lower band corresponds to LC3-II. An increase in the intensity of this band in the presence of bafilomycin-A1 indicates increased autophagic flux. […] Similar results are shown in FIG. 9 with respect to the LK-P compound 2-butyl-lanthionine-phosphonate (also referred to as 2-n-butyl-lanthionine-phosphonate or 2-n-butyl-LK-P).
# RG2 glioma cells (American Tissue Type Collection, ATTC, Rockville MD USA) were treated for 4 h with 50 nM bafilomycin-A1 (previously dissolved to 1000× final concentration in dimethylsulfoxide). Thirty minutes after addition of bafilomycin, cells were treated with test agents at 100× final concentration. Cells were lysed in RIPA buffer containing protease and phosphatase inhibitors. Protein concentration was assayed and normalized to constant values (typically 5-7 mg/mL). Proteins were electrophoresed across 4-20% polyacrylamide gels and wet blotted onto polyvinylidine difluoride (PVDF) membranes. Proteins were blotted with commercially available antibodies against LC3.
# [2] = test system: gmr-Gal4;UAS-C9orf72polyGR36 flies; test: Fly eye neurodegeneration assay, C9orf72 ALS model; assay type: in vivo, Drosophila melanogaster
# Protocol: The base for the food was a cornmeal agar product, Nutri-fly BF (Genesee Scientific, Box of 10, 1-liter bags, Cat #66-112). In a 2 L beaker, 1 L of ultrapure water was heated to […], with the stir bar speed set to 600. To the beaker, one bag of Nutri-fly BF was added in small portions. The beaker was covered to maintain temperature (monitored with an inserted thermometer) while stirring as rapidly as possible until the temperature reached 97° C. The food was stirred at this temperature for 10 minutes using a wooden spoon/spatula, then allowed to cool to approximately 65° C. with continuous stirring (magnetic bar). At 65° C., while maintaining constant stirring, 12 mL of Tegosept was added followed by 7 mL of propionic acid solution. To be used as fly maintenance food, the food was allowed to cool to 55° C. and 4 mL of the food was aliquoted (to a depth of approximately 1 inch) into individual vials with mity drosophila plugs (VWR #75813-162 and #10054-506). For use as a drug delivery vehicle, the food was allowed to cool to room temperature while covered with aluminum foil, then sealed with parafilm stored at 4° C. […] To prepare the drug-infused-food, about half of the calculated food, accurately measured, was added to a 250 mL beaker, followed by the drug (no carrier solvent is used). […]
smiles,measurement,setting,value
CCCCCCC1=C(P(=O)(O)O)N[C@H](C(=O)OCC)CS1 [2-n-hexyl-LKE-P],concentration at which the compound is potent in stimulating autophagy,"[1]; RG2 cells, FIG. 32A",0.1 µM
same,potency relative to known results for LKE,"[1]; RG2 cells, FIG. 32A",approximately 10 fold
same,autophagic flux / autophagy stimulation (LC3-II band in the presence of bafilomycin-A1),"[1]; RG2 glioma cells, 4 h, 50 nM bafilomycin-A1, western blot",stimulate autophagy in RG2 cells
same,failure to eclose from the pupa,[2]; GR dipeptides at repeat number of 100 in the eyes,not able to rescue this phenotype
same,eye phenotype,"[2]; polyGR36 in eyes, 1 and 2 mM in food throughout lifespan",alleviate the eye phenotype in a concentration-dependent manner
